The values below are quoted from earlier work in patent US20210181182A1, “METHOD FOR IDENTIFICATION OF PERTURBAGENS OF PARTICULAR BIOLOGICAL PROCESSES AND CELL SYSTEMS WITHIN LIVING CELLS” (priority 2018, published 2021).

SMILES strings stand for the structures. Marks after values point to notes of the source that are not given here.

One data set relates to mitochondria membrane potential. To be noted: HepG2, 1-hour incubation at concentrations below 60 μM; cited from earlier work.
As for `C=CC(=O)OCCC#N` [2-Cyanoethyl prop-2-enoate], the “MMP assay hitCall” value is 0.

Regarding `CCCCOC(=O)c1ccccc1C(=O)OCCCC` [Dibutyl phthalate], the “MMP assay hitCall” value was 0*.

On to `O=c1c(O)c(-c2ccc(O)cc2)oc2cc(O)cc(O)c12` [Kaempferol], for which the “MMP assay hitCall” value was 1.

Consider `CNC(=O)Oc1cccc2c1OC(C)(C)O2` [Bendiocarb], for which the “MMP assay hitCall” value is listed as 0.

As to `N#Cc1nn(-c2c(Cl)cc(C(F)(F)F)cc2Cl)c(N)c1[S+]([O-])C(F)(F)F` (stereo not shown) [Fipronil], the “MMP assay hitCall” value is listed as 1.

As for `O=C(NC(=O)c1c(F)cccc1F)Nc1ccc(OC(F)(F)C(F)OC(F)(F)F)c(Cl)c1` (stereo not shown) [Novaluron], the “MMP assay hitCall” value is 0.

For the molecule `C1N2CN3CN1CN(C2)C3` [Methenamine, reference compound], the “MMP assay hitCall” value is 0.

Turning to `COc1ccc(O)c(C(C)(C)C)c1` [2-tert-Butyl-4-methoxyphenol], the “MMP assay hitCall” value is 1.

Consider `CCOC(=O)CC(SP(=S)(OC)OC)C(=O)OCC` (stereo not shown) [Malathion], for which the “MMP assay hitCall” value is listed as 0*.

As for `CC=CC=CCOC(=O)C(C)C` [2,4-Hexadienyl isobutyrate], the “MMP assay hitCall” value is reported as 0.

For the molecule `CC(C)(C)C(O)C(Oc1ccc(Cl)cc1)n1cncn1` (stereo not shown) [Triadimenol], the “MMP assay hitCall” value is listed as 0.

For `C=CC(O)CCCCC` (stereo not shown) [1-Octen-3-ol], the “MMP assay hitCall” value is on record as 0.

In the case of `CC(=O)/C=C/c1ccccc1` [Methyl trans-styryl ketone], the “MMP assay hitCall” value was 0.

As to `Fc1cccc(Cl)c1CCl` [1-Chloro-2-(chloromethyl)-3-fluorobenzene], the “MMP assay hitCall” value is listed as 0.

`CON(C)C(=O)Nc1ccc(Cl)c(Cl)c1` [Linuron]: the “MMP assay hitCall” value is 1.

In the case of `Oc1ccc(Cl)cc1Cc1ccccc1` [Clorophene], the “MMP assay hitCall” value is reported as 1.

On to `CC(C)(O)C(=O)Nc1ccc([N+](=O)[O-])c(C(F)(F)F)c1` [Hydroxyflutamide], for which the “MMP assay hitCall” value was 1.

As for `Oc1c(Cl)cc(Cl)cc1Sc1cc(Cl)cc(Cl)c1O` [Bithionol, reference compound], the “MMP assay hitCall” value is recorded as 1.

For the molecule `N#Cc1cc(Br)c(O)c(Br)c1` [Bromoxynil], the “MMP assay hitCall” value was 1.

For the molecule `COC(C=C(C)CCC=C(C)C)OC` [1,1-Dimethoxy-3,7-dimethylocta-2,6-diene], the “MMP assay hitCall” value is 0.

Consider `CCOC(=O)NCCOc1ccc(Oc2ccccc2)cc1` [Fenoxycarb], for which the “MMP assay hitCall” value was 0*.

On to `O=C(Nc1ccc(Cl)cc1)Nc1ccc(Cl)c(Cl)c1` [Triclocarban], for which the “MMP assay hitCall” value is listed as 1.

For `CC1COc2ccccc2N1C(=O)C(Cl)Cl` (stereo not shown) [Benoxacor], the “MMP assay hitCall” value was 0.

As to `CCCN(CCOc1c(Cl)cc(Cl)cc1Cl)C(=O)n1ccnc1` [Prochloraz], the “MMP assay hitCall” value is on record as 0*.

On to `CCOc1cc(Oc2ccc(C(F)(F)F)cc2Cl)ccc1[N+](=O)[O-]` [Oxyfluorfen], for which the “MMP assay hitCall” value is on record as 1.

As for `CN(C)c1ccc(/N=N/c2ccccc2C(=O)O)cc1` [Methyl red], the “MMP assay hitCall” value is recorded as 0.

Regarding `CC(C)(C)c1ccc(CCOc2ncnc3ccccc23)cc1` [Fenazaquin], the “MMP assay hitCall” value is listed as 0*.

Consider `C=CCc1ccc(O)c(OC)c1` [Eugenol], for which the “MMP assay hitCall” value is 0*.

For the molecule `CCC(C)c1cc([N+](=O)[O-])cc([N+](=O)[O-])c1O` (stereo not shown) [Dinoseb], the “MMP assay hitCall” value was 1.

As for `CC1(C)CCC(Cc2ccc(Cl)cc2)C1(O)Cn1cncn1` (stereo not shown) [Metconazole], the “MMP assay hitCall” value is recorded as 1.

With `CCOC1Oc2ccc(OS(C)(=O)=O)cc2C1(C)C` (stereo not shown) [Ethofumesate], the “MMP assay hitCall” value is 0.

`Oc1cc(Cl)ccc1Oc1ccc(Cl)cc1Cl` [Triclosan]: the “MMP assay hitCall” value is 1.

As for `C[Si](Cn1cncn1)(c1ccc(F)cc1)c1ccc(F)cc1` [Flusilazole], the “MMP assay hitCall” value is recorded as 1.

For the molecule `CCCCCCc1ccc(O)cc1O` [4-Hexylresorcinol], the “MMP assay hitCall” value was 1.

As to `Clc1nc(Cl)nc(Nc2ccccc2Cl)n1` [Anilazine], the “MMP assay hitCall” value is on record as 0.

As to `CCCCCCCCCCCC[N+](C)(C)C.[Cl-]` [Dodecyltrimethylammonium chloride], the “MMP assay hitCall” value is 0*.

With `CC(C)CC(C)(c1ccc(O)cc1)c1ccc(O)cc1` [4,4′-(4-Methylpentane-2,2-diyl)diphenol], the “MMP assay hitCall” value is listed as 1.

`Oc1c(Cl)c(Cl)c(Cl)c(Cl)c1Cl` [Pentachlorophenol]: the “MMP assay hitCall” value is on record as 1.

For the molecule `O=C(O)Cc1cc(I)c(Oc2ccc(O)c(I)c2)c(I)c1` [Tiratricol, reference compound], the “MMP assay hitCall” value was 0.

On to `COC(=O)c1c(C(F)F)nc(C(F)(F)F)c(C2=NCCS2)c1CC(C)C` [Thiazopyr], for which the “MMP assay hitCall” value is listed as 0.

Consider `Cc1cc(C2CC2)nc(Nc2ccccc2)n1` [Cyprodinil], for which the “MMP assay hitCall” value is listed as 0.

For the molecule `CCOP(=S)(OCC)Oc1ccc([N+](=O)[O-])cc1` [Parathion], the “MMP assay hitCall” value is given as 1.

For `CC1(C)NC(=O)N(c2ccc([N+](=O)[O-])c(C(F)(F)F)c2)C1=O` [Nilutamide, reference compound], the “MMP assay hitCall” value was 0*.

As for `CC(C)(C)C(=O)C(Oc1ccc(Cl)cc1)n1cncn1` (stereo not shown) [Triadimefon], the “MMP assay hitCall” value is recorded as 0.

Consider `CCCCCCCCCCCC[N+](C)(C)C.[Br-]` [Dodecyltrimethylammonium bromide], for which the “MMP assay hitCall” value is 1.

For the molecule `O=C(Nc1ccccc1)Nc1ccnc(Cl)c1` [Forchlorfenuron], the “MMP assay hitCall” value is given as 1.

In the case of `CC(C)(C)CC(C)(C)c1ccc(O)c(-n2nc3ccccc3n2)c1` [Octrizole], the “MMP assay hitCall” value is 1.

`COP(=O)(OC)C(O)C(Cl)(Cl)Cl` (stereo not shown) [Trichlorfon]: the “MMP assay hitCall” value is listed as 0.

For the molecule `CC(C)(C)c1cc(O)c(C(C)(C)C)cc1O` [2,5-Di-tert-butylbenzene-1,4-diol], the “MMP assay hitCall” value was 1.

With `Cl.Nc1ccc(-c2ccccc2)cc1` [4-Biphenylamine hydrochloride], the “MMP assay hitCall” value was 0.

On to `C#CC(C)(C)NC(=O)c1cc(Cl)cc(Cl)c1` [Propyzamide], for which the “MMP assay hitCall” value is on record as 0.

With `COP(=S)(OC)Oc1ccc([N+](=O)[O-])c(C)c1` [Fenitrothion], the “MMP assay hitCall” value was 0*.

In the case of `O=C(CCl)c1ccccc1` [2-Chloroacetophenone], the “MMP assay hitCall” value is 0*.

In the case of `CC(C)C1CCC(Cc2ccc(Cl)cc2)C1(O)Cn1cncn1` (stereo not shown) [Ipconazole], the “MMP assay hitCall” value was 1.

Regarding `C[C@@H]1[C@@H](c2ccc(Cl)cc2)SC(=O)N1C(=O)NC1CCCCC1` [Hexythiazox], the “MMP assay hitCall” value is recorded as 1.

Consider `CC(C)=CCCC(C)=CC=O` [3,7-Dimethyl-2,6-octadienal], for which the “MMP assay hitCall” value was 0.

The data set is the same for the next values; noted with them: cited from earlier work.
As for `O=P(OCC(Br)CBr)(OCC(Br)CBr)OCC(Br)CBr` (stereo not shown) [Tris(2,3-dibromopropyl) phosphate], the “MMP assay hitCall” value is recorded as 1.

Turning to `Nc1ccc(-c2ccc(N)c(N)c2)cc1N` [3,3′-Diaminobenzidine], the “MMP assay hitCall” value is 1.

Regarding `Oc1cccc2cccnc12` [8-Hydroxyquinoline], the “MMP assay hitCall” value is given as 0.

For the molecule `CCN(CC)c1ccc2c(C)cc(=O)oc2c1` [7-Diethylamino-4-methylcoumarin], the “MMP assay hitCall” value is 1.

Consider `Nc1ccc(N=Nc2ccccc2)cc1` [4-Aminoazobenzene], for which the “MMP assay hitCall” value is 0.
